Experimental data taken from US20260167656A1, “PHOSPHORAMIDATE COMPOUNDS AND USES THEREOF” (ALLORION THERAPEUTICS INC, priority 2022, published 2026).

Assays:
[1] = test system: non-small cell lung cancer cell line H460; assay: In vitro human cancer cell line cytotoxicity (proliferation) assay in H460, CellTiter-Glo, 72 hours; assay type: cell-based; conditions: DMSO condition (no AKR1C3 inhibitor), read-out: CTG H460: Avg IC50 (nM) [Assay Condition: DMSO]
In short: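 IC50s in nM come from CellTiter-Glo viability read after 72 h of compound exposure. Compounds went in from 10 mM DMSO stocks onto H460 cells, which had been plated at 3×10^3 per well and grown 24 h beforehand at 37 °C, 5% CO2.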

[2] = test system: non-small cell lung cancer cell line H460; assay: H460 proliferation assay in the presence of 3 uM ASP9521 (AKR1C3 specific inhibitor); assay type: cell-based, human; conditions: H460 cells, CellTiter-Glo, 72 hours, in the presence of 3 uM ASP9521 added 4 hours prior to compounds; read-out: CTG H460: Avg IC50 (nM) [Assay Condition: ASP9521]
In short: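 AKR1C3 blocked with 3 uM ASP9521 given 4 h ahead of test compounds. H460 cells, plated 24 h earlier, were then treated for 72 h at 37 °C in 5% CO2. CellTiter-Glo luminescence gave viability.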

[3] = Homo sapiens, NCI-H460, 72 h, H460 cells
[4] = Homo sapiens, NCI-H460, H460 cells

Row | Structure (SMILES) | IC50 ([1]; H460 cells) | IC50 [2] | IC50 [1, 3] | IC50 [1, 4]
1 | O=[N+]([O-])c1ccc2c(c1Oc1ccc(F)c(C3CC3)c1)CCC2OP(=O)(N1CC1)N1CC1 (centres unmarked) [Example 335] | < 10 nM | 1910 nM | – | –
2 | O=[N+]([O-])c1ccc2c(c1Oc1ccc(F)c(-c3ccccn3)c1)CCC2OP(=O)(N1CC1)N1CC1 (centres unmarked) [Example 336] | < 10 nM | 1680 nM | – | –
3 | O=[N+]([O-])c1ccc2c(c1Oc1ccc(F)c(-c3ccccn3)c1)CC[C@@H]2OP(=O)(N1CC1)N1CC1 [Example 337] | 10 to 50 nM | 5800 nM | – | –
4 | O=[N+]([O-])c1ccc2c(c1Oc1ccc(O)c(-c3ncc(F)cn3)c1)CCC2OP(=O)(N1CC1)N1CC1 (centres unmarked) [Example 338] | 10 to 50 nM | 5560 nM | – | –
5 | COc1ccc(Oc2c([N+](=O)[O-])ccc3c2CCC3OP(=O)(N2CC2)N2CC2)cc1-c1ccc(F)cn1 (centres unmarked) [Example 339] | < 10 nM | 1360 nM | – | –
6 | Cc1csc(-c2cc(Oc3c([N+](=O)[O-])ccc4c3CCC4OP(=O)(N3CC3)N3CC3)ccc2F)n1 (centres unmarked) [Example 340] | 10 to 50 nM | 4390 nM | – | –
7 | O=[N+]([O-])c1ccc2c(c1Oc1ccc(O)c(-c3ncccn3)c1)CC[C@@H]2OP(=O)(N1CC1)N1CC1 [Example 341] | – | 1920 nM | < 10 nM | –
8 | Cc1cnc(-c2cccc(Oc3c([N+](=O)[O-])ccc4c3CC[C@@H]4OP(=O)(N3CC3)N3CC3)c2)s1 [Example 342] | – | 4270 nM | 10 to 50 nM | –
9 | Cc1csc(-c2cccc(Oc3c([N+](=O)[O-])ccc4c3CC[C@@H]4OP(=O)(N3CC3)N3CC3)c2)n1 [Example 343] | – | 2300 nM | < 10 nM | –
10 | Cc1ncc(-c2cccc(Oc3c([N+](=O)[O-])ccc4c3CC[C@@H]4OP(=O)(N3CC3)N3CC3)c2)[nH]1 [Example 344] | – | 1510 nM | < 10 nM | –
11 | Cn1cnc(-c2cccc(Oc3c([N+](=O)[O-])ccc4c3CC[C@@H]4OP(=O)(N3CC3)N3CC3)c2)c1 [Example 345] | – | 2110 nM | – | < 10 nM
12 | O=[N+]([O-])c1ccc2c(c1Oc1ccc(F)c(-c3ncns3)c1)CC[C@@H]2OP(=O)(N1CC1)N1CC1 [Example 347] | – | 1300 nM | < 10 nM | –
13 | COc1ccc(Oc2c([N+](=O)[O-])ccc3c2CC[C@@H]3OP(=O)(N2CC2)N2CC2)cc1C1CC1 [Example 348] | – | 827 nM | < 10 nM | –
14 | Cc1nnc(-c2cccc(Oc3c([N+](=O)[O-])ccc4c3CC[C@@H]4OP(=O)(N3CC3)N3CC3)c2)s1 [Example 349] | – | 498 nM | < 10 nM | –
15 | Cn1cncc1-c1cccc(Oc2c([N+](=O)[O-])ccc3c2CC[C@@H]3OP(=O)(N2CC2)N2CC2)c1 [Example 350] | – | 1870 nM | < 10 nM | –
16 | O=[N+]([O-])c1ccc2c(c1Oc1cccc(-c3ccnn3CCO)c1)CC[C@@H]2OP(=O)(N1CC1)N1CC1 [Example 351] | – | 1570 nM | < 10 nM | –
17 | O=[N+]([O-])c1ccc2c(c1Oc1cccc(-c3nncs3)c1)CC[C@H]2OP(=O)(N1CC1)N1CC1 [Example 352] | – | 268 nM | < 10 nM | –
18 | COc1cc(Oc2c([N+](=O)[O-])ccc3c2CC[C@@H]3OP(=O)(N2CC2)N2CC2)cc(-c2ccc(F)cn2)c1 [Example 353] | – | 1010 nM | < 10 nM | –
19 | Cn1nnc(-c2cccc(Oc3c([N+](=O)[O-])ccc4c3CC[C@@H]4OP(=O)(N3CC3)N3CC3)c2)n1 [Example 354] | – | 768 nM | < 10 nM | –
20 | Cn1nnc(-c2cc(Oc3c([N+](=O)[O-])ccc4c3CC[C@@H]4OP(=O)(N3CC3)N3CC3)ccc2F)n1 [Example 355] | – | 1130 nM | < 10 nM | –
21 | O=[N+]([O-])c1ccc2c(c1Oc1cc(F)cc(-c3ncccn3)c1)CC[C@@H]2OP(=O)(N1CC1)N1CC1 [Example 356] | – | 1990 nM | < 10 nM | –
22 | COc1cc(Oc2c([N+](=O)[O-])ccc3c2CC[C@@H]3OP(=O)(N2CC2)N2CC2)cc(-c2ncccn2)c1 [Example 357] | – | 467 nM | < 10 nM | –
23 | O=[N+]([O-])c1ccc2c(c1Oc1cc(F)cc(-c3ccc(F)cn3)c1)CC[C@@H]2OP(=O)(N1CC1)N1CC1 [Example 358] | – | 1740 nM | < 10 nM | –
24 | Cc1nsc(-c2cc(Oc3c([N+](=O)[O-])ccc4c3CC[C@@H]4OP(=O)(N3CC3)N3CC3)ccc2F)n1 [Example 359] | – | 1470 nM | – | < 10 nM
25 | Cc1nsc(-c2cccc(Oc3c([N+](=O)[O-])ccc4c3CC[C@@H]4OP(=O)(N3CC3)N3CC3)c2F)n1 [Example 360] | – | 391 nM | < 10 nM | –
26 | Cc1coc(-c2cccc(Oc3c([N+](=O)[O-])ccc4c3CC[C@@H]4OP(=O)(N3CC3)N3CC3)c2)n1 [Example 361] | – | 3910 nM | 10 to 50 nM | –

Row | Structure (SMILES) | IC50 ([1]; H460 cells) | IC50 [2] | IC50 [1, 3] | IC50 [1, 4]
27 | O=[N+]([O-])c1ccc2c(c1Oc1cccc(-c3cnc[nH]3)c1)CC[C@@H]2OP(=O)(N1CC1)N1CC1 [Example 362] | – | 1660 nM | < 10 nM | –
28 | O=[N+]([O-])c1ccc2c(c1Oc1ccc(F)c(-c3nncs3)c1)CC[C@@H]2OP(=O)(N1CC1)N1CC1 [Example 363] | – | 584 nM | < 10 nM | –
29 | O=[N+]([O-])c1ccc2c(c1Oc1cc(F)cc(-c3ncc(F)cn3)c1)CC[C@@H]2OP(=O)(N1CC1)N1CC1 [Example 364] | – | 4030 nM | 10 to 50 nM | –
30 | COc1cc(Oc2c([N+](=O)[O-])ccc3c2CC[C@@H]3OP(=O)(N2CC2)N2CC2)cc(-c2ncc(F)cn2)c1 [Example 365] | – | 1320 nM | < 10 nM | –
31 | Cn1nccc1-c1cccc(Oc2c([N+](=O)[O-])ccc3c2CCC3OP(=O)(N2CC2)N2CC2)c1 (centres unmarked) [Example 366] | < 10 nM | 636 nM | – | –
32 | O=[N+]([O-])c1ccc2c(c1Oc1cccc(-c3ccnn3CC(F)F)c1)CC[C@@H]2OP(=O)(N1CC1)N1CC1 [Example 367] | – | 321 nM | < 10 nM | –
33 | CCc1nsc(-c2cccc(Oc3c([N+](=O)[O-])ccc4c3CC[C@@H]4OP(=O)(N3CC3)N3CC3)c2)n1 [Example 368] | – | 3360 nM | 10 to 50 nM | –
34 | O=[N+]([O-])c1ccc2c(c1Oc1cccc(-c3cn[nH]c3)c1)CC[C@@H]2OP(=O)(N1CC1)N1CC1 [Example 369] | – | 938 nM | < 10 nM | –
35 | O=[N+]([O-])c1ccc2c(c1Oc1ccc(F)c(-c3cn[nH]c3)c1)CC[C@@H]2OP(=O)(N1CC1)N1CC1 [Example 370] | – | 967 nM | < 10 nM | –
36 | O=[N+]([O-])c1ccc2c(c1Oc1cccc(-c3c(F)cnn3CCO)c1)CC[C@@H]2OP(=O)(N1CC1)N1CC1 [Example 371] | – | 591 nM | < 10 nM | –
37 | O=[N+]([O-])c1ccc2c(c1Oc1cccc(-c3cc(F)nn3CCO)c1)CC[C@@H]2OP(=O)(N1CC1)N1CC1 [Example 372] | – | 332 nM | < 10 nM | –
38 | Cn1ncc(F)c1-c1cccc(Oc2c([N+](=O)[O-])ccc3c2CCC3OP(=O)(N2CC2)N2CC2)c1 (centres unmarked) [Example 373] | < 10 nM | 672 nM | – | –
39 | Cn1nc(F)cc1-c1cccc(Oc2c([N+](=O)[O-])ccc3c2CCC3OP(=O)(N2CC2)N2CC2)c1 (centres unmarked) [Example 374] | < 10 nM | 468 nM | – | –
40 | Cn1nc(-c2cccc(Oc3c([N+](=O)[O-])ccc4c3CC[C@@H]4OP(=O)(N3CC3)N3CC3)c2)cc1F [Example 375] | – | 2520 nM | < 10 nM | –
41 | CSc1ccc(Oc2c([N+](=O)[O-])ccc3c2CC[C@@H]3OP(=O)(N2CC2)N2CC2)cc1-c1nc(C)ns1 [Example 376] | – | 1850 nM | < 10 nM | –
42 | Cn1c(=O)oc2ccc(Oc3c([N+](=O)[O-])ccc4c3CCC4OP(=O)(N3CC3)N3CC3)cc21 (centres unmarked) [Example 378] | – | 440 nM | < 10 nM | –
43 | O=C1c2ccc(Oc3c([N+](=O)[O-])ccc4c3CC[C@@H]4OP(=O)(N3CC3)N3CC3)cc2CN1C1CC1 [Example 379] | – | 447 nM | < 10 nM | –
44 | Cn1c(=O)oc2ccc(Oc3c([N+](=O)[O-])ccc4c3CC[C@@H]4OP(=O)(N3CC3)N3CC3)cc21 [Example 380] | – | 722 nM | < 10 nM | –
45 | Cn1ccc2cc(Oc3c([N+](=O)[O-])ccc4c3CCC4OP(=O)(N3CC3)N3CC3)ccc2c1=O (centres unmarked) [Example 381] | – | 312 nM | < 10 nM | –
46 | Cn1ccc2cc(Oc3c([N+](=O)[O-])ccc4c3CC[C@@H]4OP(=O)(N3CC3)N3CC3)ccc2c1=O [Example 382] | – | 320 nM | < 10 nM | –
47 | O=[N+]([O-])c1ccc2c(c1Oc1ccc3nccn3c1)CC[C@H]2OP(=O)(N1CC1)N1CC1 [Example 383] | – | 4240 nM | 10 to 50 nM | –
48 | Cn1ccc2cc(Oc3c([N+](=O)[O-])ccc4c3CCC4OP(=O)(N3CC3)N3CC3)ccc21 (centres unmarked) [Example 384] | – | 1490 nM | < 10 nM | –
49 | O=[N+]([O-])c1ccc2c(c1Oc1ccc3c(c1)OC(F)(F)O3)CC[C@@H]2OP(=O)(N1CC1)N1CC1 [Example 385] | – | 819 nM | < 10 nM | –
50 | Cn1ccc2cc(Oc3c([N+](=O)[O-])ccc4c3CC[C@H]4OP(=O)(N3CC3)N3CC3)ccc21 [Example 386] | – | 1410 nM | < 10 nM | –
51 | Cc1cc2cc(Oc3c([N+](=O)[O-])ccc4c3CCC4OP(=O)(N3CC3)N3CC3)ccc2n1C (centres unmarked) [Example 387] | – | 1860 nM | < 10 nM | –
52 | Cc1nc2cc(Oc3c([N+](=O)[O-])ccc4c3CCC4OP(=O)(N3CC3)N3CC3)ccc2n1C (centres unmarked) [Example 388] | – | 1430 nM | < 10 nM | –
